Results: patent US12612412B2, “Antiviral heterocyclic compounds” (Enanta Pharmaceuticals, Inc., priority 2021, dated 2026)

Experiments:
[1] = system: HMPV clinical isolate TN/1501/A1; assay: HMPV antiviral assay Method-B (clinical isolate TN/1501/A1 in LLC-MK2 cells, ATP-Lite readout); assay type: cell-based, Human metapneumovirus (HMPV); details: human metapneumovirus, LLC-MK2, 144 h, hMPV WT1501 (clinical isolate TN/1501/A1), 6 days
In short: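 EC50 derived by four-parameter logistic fit of percent cell health, measured by ATP-Lite luminescence and normalised to virus-only and uninfected-cell controls. Compounds run in duplicate from 10 μM top, 3-fold, 10 points. Infection: LLC-MK2 cells, MOI 0.014, 2 μg/mL final TPCK-trypsin, serum-free, 6 days at 37° C.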

[2] = system: genotype A, "Long" strain RSV; assay: RSV-A assay (CPE protection in Hep-2 cells, ATPlite readout); assay type: cell-based, Human respiratory syncytial virus (HRSV); details: human respiratory syncytial virus, genotype A “Long” strain RSV, MOI 0.1, CPE protection, read-out: Human RSV-A (“Long”)
In short: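 In this cytopathic-effect protection format, infected Hep-2 cultures (MOI 0.1) are exposed to compound for 5 days. Surviving cell ATP is quantified with ATPlite, and EC50 is determined.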

Compound | EC50 [1] [nM] | EC50 [2] [nM]
C[C@]1(C(N)=O)COc2c1cc([C@@](O)(CNC(=O)c1ccc(F)c(NC(=O)NC3CC3)c1)C(F)(F)F)nc2-c1ccc(F)cc1 [Example 623] | > 500 | < 200
C[C@]1(C(N)=O)COc2c1cc([C@@](O)(CNC(=O)c1cc(F)c(F)c(NC(=O)NC3CC3)c1)C(F)(F)F)nc2-c1ccc(F)cc1 [Example 624] | > 500 | < 200
COc1ccc(C(=O)NC[C@](O)(c2cc3c(c(-c4ccc(F)cc4)n2)OC[C@]3(C)C(N)=O)C(F)(F)F)cc1NC(=O)NC1CC1 [Example 625] | > 500 | < 200
C[C@]1(C(N)=O)COc2c1cc([C@@](O)(CNC(=O)c1ccc(F)c(NC(=O)NC3CC3)c1)C(F)(F)F)nc2-c1ccc(F)c(Cl)c1 [Example 626] | > 500 | < 200
C[C@]1(C(N)=O)COc2c1cc([C@@](O)(CNC(=O)c1cc(F)cc(NC(=O)NC3CC3)c1)C(F)(F)F)nc2-c1ccc(F)cc1 [Example 628] | > 500 | > 200
Cc1nc2c(OC3CC3)cc(C(=O)NC[C@](O)(c3cc4c(c(-c5ccc(F)cc5)n3)OC[C@]4(C)C(N)=O)C3CC3)cc2cc1Cl [Example 637] | < 500 | < 200
Cc1nc2c(OC3CC3)cc(C(=O)NC[C@](O)(c3cc4c(c(-c5ccc(F)c(Cl)c5)n3)OC[C@]4(C)C(N)=O)C3CC3)cc2cc1Cl [Example 638] | < 500 | < 200
CC[C@](O)(CNC(=O)c1cc(OC)c2nn(C3CC3)cc2c1)c1cc2c(c(-c3ccc(F)cc3)n1)OC[C@]2(C)C(N)=O [Example 642] | > 500 | < 200
CC[C@](O)(CNC(=O)c1cc(OC)c2nc(C)c(Cl)cc2c1)c1cc2c(c(-c3ccc(F)cc3)n1)OC[C@]2(C)C(N)=O [Example 643] | < 500 | < 200
COc1cc(C(=O)NC[C@](O)(c2cc3c(c(-c4ccc(F)cc4)n2)OC[C@]3(C)C(N)=O)C2CCCC2)cc2cn(C3CC3)nc12 [Example 644] | > 500 | > 200
[2H]C([2H])([2H])[C@](O)(CNC(=O)c1cc(OC)c2nn(C3CC3)cc2c1)c1cc2c(c(-c3ccc(F)cc3)n1)OC[C@]2(C)C(N)=O [Example 645] | > 500 | < 200
[2H]C([2H])([2H])[C@](O)(CNC(=O)c1cc(OC2CC2)c2ncccc2c1)c1cc2c(c(-c3ccc(F)cc3)n1)OC[C@]2(C)C(N)=O [Example 646] | > 500 | < 200
[2H]C([2H])([2H])[C@](O)(CNC(=O)c1cc(OC(F)F)c2ncc(C)cc2c1)c1cc2c(c(-c3ccc(F)cc3)n1)OC[C@]2(C)C(N)=O [Example 647] | > 500 | < 200
COc1cc(C(=O)NC[C@](O)(c2cc3c(c(-c4ccc5c(c4)OC(F)(F)O5)n2)OC[C@]3(C)C(N)=O)C2CC2)cc2c(F)n(C3CC3)nc12 [Example 650] | < 500 | < 200
COc1cc(C(=O)NC[C@](O)(c2cc3c(c(-c4ccc(F)cc4Cl)n2)OC[C@]3(C)C(N)=O)C2CC2)cc2cn(C3(F)CC3)nc12 [Example 652] | < 500 | < 200
COc1cc(C(=O)NC[C@](O)(c2cc3c(c(-c4ccc(F)cc4)n2)OC[C@@H]3C(N)=O)C(F)(F)F)cc2cn(C3CC3)nc12 [Example 653] | > 500 | < 200
COc1cc(C(=O)NC[C@](O)(c2cc3c(c(-c4cc(F)c(F)cc4Cl)n2)OC[C@]3(C)C(N)=O)C2CC2)cc2cc(Br)cnc12 [Example 660] | < 500 | < 200
COc1cc(C(=O)NC[C@](O)(c2cc3c(c(-c4cc(Cl)c(F)cc4F)n2)OC[C@]3(C)C(N)=O)C2CC2)cc2cc(Br)cnc12 [Example 664] | < 500 | < 200
Cc1cnc2c(OC(F)F)cc(C(=O)NC[C@](O)(c3cc4c(c(-c5cc(Cl)c(F)cc5F)n3)OC[C@]4(C)C(N)=O)C3CC3)cc2c1 [Example 665] | < 500 | < 200
C[C@]1(C(N)=O)COc2c1cc([C@@](O)(CNC(=O)c1cc(Cl)c3nn(C4CC4)cc3c1)C1CC1)nc2-c1cc(Cl)c(F)cc1F [Example 668] | < 500 | < 200
COc1cc(C(=O)NC[C@](O)(c2cc3c(c(-c4ccc(Cl)c(F)c4F)n2)OC[C@]3(C)C(N)=O)C2CC2)cc2cn(C3CC3)nc12 [Example 683] | < 500 | < 200

More lines, now with the values ahead:

EC50 [1] [nM] | EC50 [2] [nM] | Compound
> 500 | < 200 | COc1ccc(C(=O)NC[C@](O)(c2cc3c(c(-c4ccc(F)c(Cl)c4)n2)OC[C@]3(C)C(N)=O)C(F)(F)F)cc1NC(=O)NC1CC1 [Example 627]
< 500 | < 200 | COc1cc(C(=O)NC[C@](O)(c2cc3c(c(-c4ccc(F)c(Cl)c4)n2)OC[C@]3(C)C(N)=O)C2CC2)cc2cc(Cl)c(C)nc12 [Example 633]
< 500 | < 200 | COc1cc(C(=O)NC[C@](O)(c2cc3c(c(-c4ccc(F)c(C)c4)n2)OC[C@]3(C)C(N)=O)C(F)(F)F)cc2cn(C3CC3)nc12 [Example 636]
< 500 | < 200 | COc1cc(C(=O)NC[C@](O)(c2cc3c(c(-c4ccc5c(c4)OC(F)(F)O5)n2)OC[C@]3(C)C(N)=O)C(F)(F)F)cn2cc(C3CC3)nc12 [Example 639]
< 500 | < 200 | COc1cc(C(=O)NC[C@](O)(c2cc3c(c(-c4ccc5c(c4)OC(F)(F)O5)n2)OC[C@]3(C)C(N)=O)C(F)(F)F)cc2cc(Cl)c(C)nc12 [Example 640]
> 500 | < 200 | COc1cc(C(=O)NC[C@](O)(c2cc3c(c(-c4ccc(F)cc4)n2)OC[C@]3(C)C(N)=O)C(F)(F)F)cc2c(F)n(C3CC3)nc12 [Example 649]
< 500 | < 200 | COc1cc(C(=O)NC[C@](O)(c2cc3c(c(-c4ccc(F)c(C(F)(F)F)c4)n2)OC[C@]3(C)C(N)=O)C2CC2)cc2cn(C3(F)CC3)nc12 [Example 651]
< 500 | < 200 | COc1cc(C(=O)NC[C@](O)(c2cc3c(c(-c4cc(F)c(F)cc4Cl)n2)OC[C@]3(C)C(N)=O)C(F)(F)F)cc2cn(C3CC3)nc12 [Example 654]
< 500 | < 200 | COc1cc(C(=O)NC[C@](O)(c2cc3c(c(-c4ccc(F)c(C(F)(F)F)c4)n2)OC[C@]3(C)C(N)=O)C2CC2)cc2cn(C(F)F)nc12 [Example 655]
< 500 | < 200 | COc1cc(C(=O)NC[C@](O)(c2cc3c(c(-c4ccc(F)cc4Cl)n2)OC[C@]3(C)C(N)=O)C2CC2)cc2cn(C(F)F)nc12 [Example 656]
< 500 | < 200 | COc1cc(C(=O)NC[C@](O)(c2cc3c(c(-c4cc(F)c(F)cc4Cl)n2)OC[C@]3(C)C(N)=O)C2CC2)cc2cn(C(F)F)nc12 [Example 658]
< 500 | < 200 | COc1cc(C(=O)NC[C@](O)(c2cc3c(c(-c4cc(F)c(F)cc4Cl)n2)OC[C@]3(C)C(N)=O)C2CC2)cc2cn(C3(F)CC3)nc12 [Example 659]
< 500 | < 200 | COc1cc(C(=O)NC[C@](O)(c2cc3c(c(-c4cc(Cl)c(F)cc4F)n2)OC[C@]3(C)C(N)=O)C2CC2)cc2cn(C3CC3)nc12 [Example 661]
< 500 | < 200 | COc1cc(C(=O)NC[C@](O)(c2cc3c(c(-c4cc(Cl)c(F)cc4F)n2)OC[C@]3(C)C(N)=O)C2CC2)cc2cn(C(F)F)nc12 [Example 662]
< 500 | < 200 | COc1cc(C(=O)NC[C@](O)(c2cc3c(c(-c4cc(Cl)c(F)cc4F)n2)OC[C@]3(C)C(N)=O)C2CC2)cc2cn(C3(F)CC3)nc12 [Example 663]
< 500 | < 200 | COc1cc(C(=O)NC[C@](O)(c2cc3c(c(-c4cc(Cl)c(F)cc4F)n2)OC[C@]3(C)C(N)=O)C2CC2)cc2cc(Cl)c(C)nc12 [Example 666]
> 500 | < 200 | COc1cc(C(=O)NC[C@](O)(c2cc3c(c(-c4cc(Cl)c(F)c(Cl)c4)n2)OC[C@]3(C)C(N)=O)C(F)(F)F)cc2cn(C3CC3)nc12 [Example 669]
> 500 | < 200 | COc1cc(C(=O)NC[C@](O)(c2cc3c(c(-c4cc(Cl)c(F)c(Cl)c4)n2)OC[C@]3(C)C(N)=O)C(F)(F)F)cc2cn(C(F)F)nc12 [Example 670]
> 500 | < 200 | COc1cc(C(=O)NC[C@](O)(c2cc3c(c(-c4cc(Cl)c(F)c(Cl)c4)n2)OC[C@]3(C)C(N)=O)C(F)(F)F)cc2cn(C3(F)CC3)nc12 [Example 671]
> 500 | < 200 | COc1cc(C(=O)NC[C@](O)(c2cc3c(c(-c4cc(Cl)c(F)c(Cl)c4)n2)OC[C@]3(C)C(N)=O)C(F)(F)F)cc2cc(Br)cnc12 [Example 672]
> 500 | < 200 | C[C@]1(C(N)=O)COc2c1cc([C@@](O)(CNC(=O)c1cc(Cl)c3nn(C4CC4)cc3c1)C(F)(F)F)nc2-c1cc(Cl)c(F)c(Cl)c1 [Example 673]
> 500 | < 200 | COc1cc(C(=O)NC[C@](O)(c2cc3c(c(-c4cc(Cl)c(F)c(Cl)c4)n2)OC[C@]3(C)C(N)=O)C(F)(F)F)cc2cc(Cl)c(C)nc12 [Example 674]
> 500 | < 200 | Cc1cnc2c(Cl)cc(C(=O)NC[C@](O)(c3cc4c(c(-c5cc(Cl)c(F)c(Cl)c5)n3)OC[C@]4(C)C(N)=O)C(F)(F)F)cc2c1 [Example 675]
< 500 | < 200 | COc1cc(C(=O)NC[C@](O)(c2cc3c(c(-c4ccc(Cl)c(F)c4F)n2)OC[C@]3(C)C(N)=O)C2CC2)cc2cn(C(F)F)nc12 [Example 684]
